Measured values taken from ChEMBL document CHEMBL5303765, “Data for DCP probe BAY-7081” (2023).

What was measured:
[1] = biological target: 3',5'-cyclic-AMP phosphodiesterase 4A (Homo sapiens) (UniProt P27815); assay: Panlabs assay PDE4A1A; design: compound concentration 10 uM; conditions: at 10 µM
[2] = biological target: T1, cGMP-specific 3',5'-cyclic phosphodiesterase (Homo sapiens, UniProt O76074); assay: Panlabs assay PDE5A; design: compound concentration 10 uM; conditions: at 10 µM
[3] = biological target: High affinity 3',5'-cyclic-AMP phosphodiesterase 7A (Homo sapiens) (UniProt Q13946); assay: Panlabs assay PDE7A; design: compound concentration 10 uM; conditions: at 10 µM
[4] = biological target: T2, High affinity cAMP-specific and IBMX-insensitive 3',5'-cyclic phosphodiesterase 8A (Homo sapiens, UniProt O60658); assay: Panlabs assay PDE8A1; design: compound concentration 10 uM; conditions: at 10 µM
Phosphodiesterase PDE1 = Phosphodiesterase PDE1 (Bos taurus, UniProt Q01061+P14100+A0A3Q1MCV4); assay: 3H-cAMP and 3H-cGMP Scintillation Proximity Assay (PDE1); assay type: tissue-based, brain
[5] = biological target: cGMP-inhibited 3',5'-cyclic phosphodiesterase 3B (Homo sapiens, UniProt Q13370); assay: 3H-cAMP and 3H-cGMP Scintillation Proximity Assay (PDE3B)
Phosphodiesterase 6 = assay: 3H-cAMP and 3H-cGMP Scintillation Proximity Assay (PDE6); assay type: tissue-based, Bos taurus, retina
[6] = biological target: 3',5'-cyclic-AMP phosphodiesterase 7B (Homo sapiens, UniProt Q9NP56); assay: 3H-cAMP and 3H-cGMP Scintillation Proximity Assay (PDE7B)
[7] = biological target: T2, High affinity cAMP-specific and IBMX-insensitive 3',5'-cyclic phosphodiesterase 8A; assay: 3H-cAMP and 3H-cGMP Scintillation Proximity Assay (PDE8A)
[8] = biological target: Aldo-keto reductase family 1 member B1 (Rattus norvegicus) (UniProt P07943); assay: Aldose Reductase Eurofins Panlabs panel; conditions: Compound concentration 10.0 uM
[9] = biological target: Carbonic anhydrase 2 (Homo sapiens) (UniProt P00918); assay: Carbonic Anhydrase II Eurofins Panlabs panel; conditions: Compound concentration 10.0 uM
[10] = biological target: Prostaglandin G/H synthase 1 (Homo sapiens) (UniProt P23219); assay: Cyclooxygenase COX-1 Eurofins Panlabs panel; conditions: Compound concentration 10.0 uM
[11] = biological target: Polyunsaturated fatty acid lipoxygenase ALOX15 (Homo sapiens) (UniProt P16050); assay: Lipoxygenase 15-LO Eurofins Panlabs panel; conditions: Compound concentration 10.0 uM
[12] = biological target: Nitric oxide synthase, inducible (Mus musculus) (UniProt P29477); assay: Nitric Oxide Synthetase, Inducible (iNOS) Eurofins Panlabs panel; conditions: Compound concentration 10.0 uM
[13] = biological target: Angiotensin-converting enzyme (Oryctolagus cuniculus) (UniProt P12822); assay: Peptidase, Angiotensin Converting Enzyme Eurofins Panlabs panel; conditions: Compound concentration 10.0 uM
[14] = biological target: T1, cGMP-specific 3',5'-cyclic phosphodiesterase; assay: Phosphodiesterase PDE5 Eurofins Panlabs panel; conditions: Compound concentration 10.0 uM
[15] = biological target: Adenosine receptor A3 (Homo sapiens) (UniProt P0DMS8); assay: Adenosine A3 Eurofins Panlabs panel; conditions: Compound concentration 10.0 uM
[16] = biological target: T3, Alpha-2A adrenergic receptor (Homo sapiens) (UniProt P08913); assay: Adrenergic alpha2A Eurofins Panlabs panel; conditions: Compound concentration 10.0 uM
T3 sequence (whole entry): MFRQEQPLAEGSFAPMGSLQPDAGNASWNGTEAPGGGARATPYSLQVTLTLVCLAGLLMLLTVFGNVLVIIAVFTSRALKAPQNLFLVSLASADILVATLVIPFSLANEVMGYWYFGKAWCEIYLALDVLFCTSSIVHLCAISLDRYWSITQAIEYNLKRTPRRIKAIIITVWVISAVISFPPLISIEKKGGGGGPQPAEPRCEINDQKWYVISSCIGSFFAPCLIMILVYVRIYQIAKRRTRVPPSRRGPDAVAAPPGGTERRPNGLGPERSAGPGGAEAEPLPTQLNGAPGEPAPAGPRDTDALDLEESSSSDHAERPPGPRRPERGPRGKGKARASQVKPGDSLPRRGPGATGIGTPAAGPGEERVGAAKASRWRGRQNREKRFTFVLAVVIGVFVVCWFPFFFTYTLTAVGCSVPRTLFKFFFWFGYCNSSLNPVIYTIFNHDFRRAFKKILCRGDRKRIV

[17] = biological target: Type-1 angiotensin II receptor (Homo sapiens) (UniProt P30556); assay: Angiotensin AT1 Eurofins Panlabs panel; conditions: Compound concentration 10.0 uM
[18] = biological target: D(2) dopamine receptor (Homo sapiens) (UniProt P14416); assay: Dopamine D2S Eurofins Panlabs panel; conditions: Compound concentration 10.0 uM
[19] = biological target: Estrogen receptor (Homo sapiens) (UniProt P03372); assay: Estrogen Eralpha Eurofins Panlabs panel; conditions: Compound concentration 10.0 uM
[20] = biological target: Glutamate receptor ionotropic, AMPA (Rattus norvegicus) (UniProt P19491+P19492+P19493+P19490); assay: Glutamate, AMPA Eurofins Panlabs panel; assay type: protein-complex assay; conditions: Compound concentration 10.0 uM
[21] = biological target: Glutamate NMDA receptor (Rattus norvegicus) (UniProt P35439+Q00959+Q00960+Q00961+Q62645+Q8VHN2+Q9R1M7); assay: Glutamate, NMDA, Glycine Eurofins Panlabs panel; assay type: protein-complex assay; conditions: Compound concentration 10.0 uM
[22] = biological target: Histamine H3 receptor (Homo sapiens) (UniProt Q9Y5N1); assay: Histamine H3 Eurofins Panlabs panel; conditions: Compound concentration 10.0 uM
Mu-type opioid receptor = Mu-type opioid receptor (Homo sapiens, UniProt P35372); assay: Opiate ??(OP3, MOP) Eurofins Panlabs panel; conditions: Compound concentration 10.0 uM
[23] = biological target: Purinergic P2Y (Rattus norvegicus) (UniProt O35811+Q9EPX4+P49651+Q63371+P41232+O35881+Q6GUG4); assay: Purinergic P2Y Eurofins Panlabs panel; assay type: protein assay; conditions: Compound concentration 10.0 uM
[24] = biological target: T4, 5-hydroxytryptamine receptor 3A (Homo sapiens) (UniProt P46098); assay: Serotonin (5-Hydroxytryptamine) 5-HT3 Eurofins Panlabs panel; conditions: Compound concentration 10.0 uM
T4 sequence (whole entry): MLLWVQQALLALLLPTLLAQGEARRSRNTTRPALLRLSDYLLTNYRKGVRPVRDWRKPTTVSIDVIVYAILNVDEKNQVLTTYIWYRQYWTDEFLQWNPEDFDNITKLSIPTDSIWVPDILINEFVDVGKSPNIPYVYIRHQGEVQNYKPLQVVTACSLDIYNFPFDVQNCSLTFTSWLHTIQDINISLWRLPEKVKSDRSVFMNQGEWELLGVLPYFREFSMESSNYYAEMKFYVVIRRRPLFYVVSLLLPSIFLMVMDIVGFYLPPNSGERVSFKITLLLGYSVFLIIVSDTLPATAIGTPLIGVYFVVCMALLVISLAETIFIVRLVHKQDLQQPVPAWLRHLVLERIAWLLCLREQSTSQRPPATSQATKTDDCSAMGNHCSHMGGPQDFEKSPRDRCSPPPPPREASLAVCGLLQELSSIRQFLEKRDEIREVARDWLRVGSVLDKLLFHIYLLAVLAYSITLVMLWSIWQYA

[25] = biological target: 5-hydroxytryptamine receptor 4 (Cavia porcellus) (UniProt O70528); assay: Serotonin (5-Hydroxytryptamine) 5-HT4 Eurofins Panlabs panel; conditions: Compound concentration 10.0 uM
[26] = biological target: Sodium-dependent dopamine transporter (Homo sapiens) (UniProt Q01959); assay: Transporter, Dopamine (DAT) Eurofins Panlabs panel; conditions: Compound concentration 10.0 uM
[27] = biological target: Sodium-dependent noradrenaline transporter (Homo sapiens) (UniProt P23975); assay: Transporter, Norepinephrine (NET) Eurofins Panlabs panel; conditions: Compound concentration 10.0 uM
[28] = biological target: Vasopressin V1a receptor (Homo sapiens) (UniProt P37288); assay: Vasopressin V1A Eurofins Panlabs panel; conditions: concentration not given here
[29] = biological target: L-type calcium channel, dihydropyridine site (Rattus norvegicus, UniProt P22002+P27732+Q02485); assay: Calcium Channel L-Type, Dihydropyridine Eurofins Panlabs panel; assay type: protein assay; conditions: compound concentration 10 uM
[30] = biological target: Substance-P receptor (Homo sapiens) (UniProt P25103); assay: Tachykinin NK1 Eurofins Panlabs panel; conditions: Compound concentration 10.0 uM

T2 sequence (O60658 whole entry): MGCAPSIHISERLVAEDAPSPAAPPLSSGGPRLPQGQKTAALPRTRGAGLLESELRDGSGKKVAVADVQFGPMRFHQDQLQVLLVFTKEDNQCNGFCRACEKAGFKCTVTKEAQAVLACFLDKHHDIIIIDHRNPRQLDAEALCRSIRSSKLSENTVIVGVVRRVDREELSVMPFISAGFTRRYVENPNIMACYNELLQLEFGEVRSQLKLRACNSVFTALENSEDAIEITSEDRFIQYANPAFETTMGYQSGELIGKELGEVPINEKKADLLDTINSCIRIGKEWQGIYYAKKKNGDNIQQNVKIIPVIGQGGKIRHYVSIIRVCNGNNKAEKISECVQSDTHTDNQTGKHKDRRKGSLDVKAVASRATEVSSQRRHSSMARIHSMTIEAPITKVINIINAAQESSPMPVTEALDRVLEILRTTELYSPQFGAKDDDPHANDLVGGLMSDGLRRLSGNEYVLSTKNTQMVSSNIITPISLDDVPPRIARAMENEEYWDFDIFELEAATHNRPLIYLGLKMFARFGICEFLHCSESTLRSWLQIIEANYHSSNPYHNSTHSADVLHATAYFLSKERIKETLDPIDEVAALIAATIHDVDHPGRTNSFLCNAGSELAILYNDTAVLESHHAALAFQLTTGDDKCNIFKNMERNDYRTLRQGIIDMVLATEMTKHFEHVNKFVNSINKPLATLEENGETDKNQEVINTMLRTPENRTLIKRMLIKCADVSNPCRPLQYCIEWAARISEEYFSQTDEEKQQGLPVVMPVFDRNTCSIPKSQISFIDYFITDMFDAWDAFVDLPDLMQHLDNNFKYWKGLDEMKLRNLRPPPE
5-hydroxytryptamine receptor 4 (Cavia porcellus), sequence (O70528 whole entry): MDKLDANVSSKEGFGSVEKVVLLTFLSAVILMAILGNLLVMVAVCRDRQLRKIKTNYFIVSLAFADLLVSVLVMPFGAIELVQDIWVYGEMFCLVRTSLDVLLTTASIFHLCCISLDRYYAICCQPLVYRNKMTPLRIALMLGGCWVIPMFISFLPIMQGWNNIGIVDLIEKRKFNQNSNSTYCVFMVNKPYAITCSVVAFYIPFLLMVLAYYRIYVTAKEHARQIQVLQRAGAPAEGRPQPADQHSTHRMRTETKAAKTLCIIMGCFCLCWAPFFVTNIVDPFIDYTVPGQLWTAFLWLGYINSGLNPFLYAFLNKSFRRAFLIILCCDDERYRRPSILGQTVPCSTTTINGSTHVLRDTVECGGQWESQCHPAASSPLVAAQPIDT
Angiotensin-converting enzyme (Oryctolagus cuniculus), sequence (P12822 whole entry): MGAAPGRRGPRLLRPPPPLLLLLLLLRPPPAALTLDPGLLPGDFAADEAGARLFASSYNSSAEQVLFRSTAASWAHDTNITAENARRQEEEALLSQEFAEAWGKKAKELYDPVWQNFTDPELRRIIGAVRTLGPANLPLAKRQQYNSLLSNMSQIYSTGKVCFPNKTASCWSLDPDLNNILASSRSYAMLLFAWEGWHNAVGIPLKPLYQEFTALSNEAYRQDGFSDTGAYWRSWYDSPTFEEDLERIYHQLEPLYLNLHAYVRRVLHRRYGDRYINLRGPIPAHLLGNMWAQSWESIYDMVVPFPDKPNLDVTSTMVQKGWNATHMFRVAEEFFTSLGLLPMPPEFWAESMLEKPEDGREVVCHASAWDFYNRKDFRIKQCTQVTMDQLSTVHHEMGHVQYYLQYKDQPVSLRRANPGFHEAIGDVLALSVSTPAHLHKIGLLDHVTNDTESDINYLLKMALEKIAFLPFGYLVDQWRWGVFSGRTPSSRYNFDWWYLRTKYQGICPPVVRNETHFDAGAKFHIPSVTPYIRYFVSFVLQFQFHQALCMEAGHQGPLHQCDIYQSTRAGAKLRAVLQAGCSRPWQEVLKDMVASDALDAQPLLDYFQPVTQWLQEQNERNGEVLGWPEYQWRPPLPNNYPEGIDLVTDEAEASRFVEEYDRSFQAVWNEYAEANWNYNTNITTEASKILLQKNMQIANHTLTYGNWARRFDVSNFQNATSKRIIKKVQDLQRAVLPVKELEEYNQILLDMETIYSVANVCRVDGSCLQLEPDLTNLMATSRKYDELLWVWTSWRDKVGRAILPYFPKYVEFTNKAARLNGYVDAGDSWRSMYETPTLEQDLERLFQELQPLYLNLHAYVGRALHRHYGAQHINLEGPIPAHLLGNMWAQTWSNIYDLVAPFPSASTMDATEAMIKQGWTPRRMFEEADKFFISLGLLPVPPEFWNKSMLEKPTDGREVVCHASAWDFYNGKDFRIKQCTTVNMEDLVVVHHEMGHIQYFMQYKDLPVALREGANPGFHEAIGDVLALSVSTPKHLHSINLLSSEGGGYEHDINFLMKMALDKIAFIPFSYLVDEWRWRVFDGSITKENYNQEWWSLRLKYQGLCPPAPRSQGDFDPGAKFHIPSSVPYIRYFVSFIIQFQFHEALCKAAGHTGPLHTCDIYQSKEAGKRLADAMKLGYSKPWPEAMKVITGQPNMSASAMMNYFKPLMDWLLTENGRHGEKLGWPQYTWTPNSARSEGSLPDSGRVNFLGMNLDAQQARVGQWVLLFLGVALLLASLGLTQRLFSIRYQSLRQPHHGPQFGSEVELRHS
3',5'-cyclic-AMP phosphodiesterase 4A (Homo sapiens), sequence (P27815 whole entry): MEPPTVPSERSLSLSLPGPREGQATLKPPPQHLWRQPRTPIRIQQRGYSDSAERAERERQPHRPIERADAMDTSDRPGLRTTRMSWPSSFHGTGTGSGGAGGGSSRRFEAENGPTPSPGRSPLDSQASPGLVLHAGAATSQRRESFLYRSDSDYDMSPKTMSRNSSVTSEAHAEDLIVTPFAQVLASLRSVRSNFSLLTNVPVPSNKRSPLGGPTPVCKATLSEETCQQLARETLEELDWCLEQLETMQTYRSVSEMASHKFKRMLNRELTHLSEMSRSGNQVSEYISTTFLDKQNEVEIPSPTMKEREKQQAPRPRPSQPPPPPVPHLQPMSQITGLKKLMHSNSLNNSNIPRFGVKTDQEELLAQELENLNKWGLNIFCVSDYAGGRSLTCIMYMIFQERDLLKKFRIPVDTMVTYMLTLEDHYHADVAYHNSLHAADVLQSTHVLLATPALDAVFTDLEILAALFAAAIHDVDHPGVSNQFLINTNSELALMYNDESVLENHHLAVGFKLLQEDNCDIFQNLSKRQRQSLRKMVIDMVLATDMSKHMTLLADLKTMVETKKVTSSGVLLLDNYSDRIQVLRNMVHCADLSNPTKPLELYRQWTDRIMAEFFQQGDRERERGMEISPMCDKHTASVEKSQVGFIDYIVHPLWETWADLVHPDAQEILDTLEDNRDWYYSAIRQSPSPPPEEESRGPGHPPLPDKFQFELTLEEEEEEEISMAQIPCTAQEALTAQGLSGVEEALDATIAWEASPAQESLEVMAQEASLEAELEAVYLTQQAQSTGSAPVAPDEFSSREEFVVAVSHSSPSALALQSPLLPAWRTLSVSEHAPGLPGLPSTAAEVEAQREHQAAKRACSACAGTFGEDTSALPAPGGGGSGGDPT
Vasopressin V1a receptor (Homo sapiens), sequence (P37288 whole entry, looked up): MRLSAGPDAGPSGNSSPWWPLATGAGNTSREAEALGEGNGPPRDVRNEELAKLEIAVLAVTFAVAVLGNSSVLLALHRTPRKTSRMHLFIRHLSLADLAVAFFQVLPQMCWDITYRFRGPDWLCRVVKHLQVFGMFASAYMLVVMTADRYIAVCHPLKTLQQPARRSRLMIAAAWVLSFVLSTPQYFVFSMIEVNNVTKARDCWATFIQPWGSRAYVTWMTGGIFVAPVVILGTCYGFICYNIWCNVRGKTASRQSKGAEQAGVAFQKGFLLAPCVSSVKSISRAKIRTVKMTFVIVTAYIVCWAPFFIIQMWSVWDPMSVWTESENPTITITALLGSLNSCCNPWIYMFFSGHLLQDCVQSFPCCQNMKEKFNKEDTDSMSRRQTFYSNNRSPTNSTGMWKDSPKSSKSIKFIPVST
Mu-type opioid receptor, sequence (P35372 whole entry): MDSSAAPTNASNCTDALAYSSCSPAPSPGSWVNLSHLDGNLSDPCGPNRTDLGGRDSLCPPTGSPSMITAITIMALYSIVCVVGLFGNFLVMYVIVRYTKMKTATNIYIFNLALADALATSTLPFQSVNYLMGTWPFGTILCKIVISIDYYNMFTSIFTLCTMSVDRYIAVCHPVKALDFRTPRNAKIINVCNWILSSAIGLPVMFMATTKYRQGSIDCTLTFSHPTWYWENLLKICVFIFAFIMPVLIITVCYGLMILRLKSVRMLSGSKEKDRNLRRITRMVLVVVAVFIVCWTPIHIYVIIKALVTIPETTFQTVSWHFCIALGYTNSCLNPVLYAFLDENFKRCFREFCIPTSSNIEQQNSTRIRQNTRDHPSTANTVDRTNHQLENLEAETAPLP
Polyunsaturated fatty acid lipoxygenase ALOX15 (Homo sapiens), sequence (P16050 whole entry): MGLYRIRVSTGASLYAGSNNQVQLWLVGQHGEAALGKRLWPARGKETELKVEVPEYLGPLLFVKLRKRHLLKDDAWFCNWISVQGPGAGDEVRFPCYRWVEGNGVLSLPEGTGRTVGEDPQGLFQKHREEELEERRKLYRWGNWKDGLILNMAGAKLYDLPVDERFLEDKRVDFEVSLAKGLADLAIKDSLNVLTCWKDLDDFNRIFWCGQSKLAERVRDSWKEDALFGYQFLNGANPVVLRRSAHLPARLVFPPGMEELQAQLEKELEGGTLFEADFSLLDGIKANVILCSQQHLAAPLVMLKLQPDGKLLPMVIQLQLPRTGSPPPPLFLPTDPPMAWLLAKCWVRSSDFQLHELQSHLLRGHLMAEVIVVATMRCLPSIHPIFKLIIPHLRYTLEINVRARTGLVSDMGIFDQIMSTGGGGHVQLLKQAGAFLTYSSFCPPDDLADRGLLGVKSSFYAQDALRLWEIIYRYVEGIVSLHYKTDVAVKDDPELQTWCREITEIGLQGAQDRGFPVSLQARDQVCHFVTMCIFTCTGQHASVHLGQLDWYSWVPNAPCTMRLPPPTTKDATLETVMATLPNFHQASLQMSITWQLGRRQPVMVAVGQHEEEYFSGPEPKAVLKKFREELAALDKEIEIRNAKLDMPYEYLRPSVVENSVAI

CCC[C@@H]1CNCc2c1[nH]c(=O)c(C#N)c2N1CCC2(CC1)CC2
inhibition [1]: 6.8% | inhibition [2]: 12.2% | inhibition [3]: -1.6% | inhibition [4]: 2.9%

CCC[C@H]1CNCc2c1[nH]c(=O)c(C#N)c2N1CCC2(CC1)CC2
IC50 (Phosphodiesterase PDE1): 753 nM | IC50 [5]: > 10000 nM (not active) | IC50 (Phosphodiesterase 6): 1560 nM | IC50 [6]: > 10000 nM (not active) | IC50 [7]: 1490 nM (not active) | inhibition [8]: 4% | inhibition [9]: -7.5% | inhibition [10]: 1% | inhibition [11]: -6% | inhibition [12]: 6% | inhibition [13]: 4% | inhibition [14]: 59% | inhibition [15]: 12.5% | inhibition [16]: 28% | inhibition [17]: 5% | inhibition [18]: -2% | inhibition [19]: 8% | inhibition [20]: -2% | inhibition [21]: -2% | inhibition [22]: 5% | inhibition (Mu-type opioid receptor): 18.4% | inhibition [23]: 5% | inhibition [24]: 3.75% | inhibition [25]: 22% | inhibition [26]: 19% | inhibition [27]: 6% | inhibition [28]: 0% | inhibition at 10 µM [29]: 29% | inhibition [30]: -7%
